Experimental data as given in ChEMBL document CHEMBL1201862, “PubChem BioAssay data set” (2004).
Structures can show the parent of a compound that is named as a salt.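 Test compounds were applied to cells in 96-well plates for 48 hours at 5 doses. Abbreviation: GI50, concentration required for 50% inhibition of growth.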 Activity calls are given as the source filed them. Cut-off read from the data, not from the text of the source: active = GI50 up to about 1.1 µM and inactive = higher.

Columns and labels:
Experiment in all cases: DTP human tumour cell line panel, 48 h
[1] = tested on: CAKI-1
[2] = tested on: COLO 205
[3] = tested on: DU-145
[4] = tested on: EKVX
[5] = tested on: HCC 2998
[6] = tested on: HCT-15
[7] = tested on: HOP-62
[8] = tested on: HT-29
[9] = tested on: LOX IMVI
[10] = tested on: M14
[11] = tested on: MDA-MB-231
[12] = tested on: NCI-H460
[13] = tested on: NCI/ADR-RES
[14] = tested on: OVCAR-5
[15] = tested on: SK-MEL-5
[16] = tested on: SNB-19
[17] = tested on: SNB-75
[18] = tested on: UACC-257
[19] = tested on: UACC-62
[20] = tested on: BT-549

Structure (SMILES)	GI50 [1]	GI50 [2]	GI50 [3]	GI50 [4]	GI50 [5]	GI50 [6] [µM]	GI50 [7]	GI50 [8]	GI50 [9]	GI50 [10]	GI50 [11]	GI50 [12]	GI50 [13]	GI50 [14]	GI50 [15]	GI50 [16]	GI50 [17]	GI50 [18]	GI50 [19]	GI50 [20]
O=C1C(C(O)(C(F)(F)F)C(F)(F)F)CCC1C(O)(C(F)(F)F)C(F)(F)F (configuration not stated)	0.341 µM (active)	0.0481 µM (active)	7.96 µM (inactive)	8.13 µM (inactive)	0.323 µM (active)	28.3	0.569 µM (active)	0.301 µM (active)	0.594 µM (active)	8.71 µM (inactive)	0.746 µM (active)	8.83 µM (inactive)	2.33 µM (inactive)	9.98 µM (inactive)	1.72 µM (inactive)	17.9 µM (inactive)	0.234 µM (active)	7.67 µM (inactive)	1.78 µM (inactive)	
CN(C)CCOC(c1ccccc1)c1ccccc1 [DIPHENHYDRAMINE HYDROCHLORIDE]	> 100 µM (inactive)	> 100 µM (inactive)	> 100 µM (inactive)	> 100 µM (inactive)	> 100 µM (inactive)	> 100	> 100 µM (inactive)	> 100 µM (inactive)	> 100 µM (inactive)	51.2 µM (inactive)	> 100 µM (inactive)	> 100 µM (inactive)	> 100 µM (inactive)	> 100 µM (inactive)	> 100 µM (inactive)			> 100 µM (inactive)		
COc1cc2c3c(n(C)c(=O)c2cc1OC)-c1cc2c(cc1/C3=C\CCCCl)OCO2	25.9 µM (inactive)	32.9 µM (inactive)		54.6 µM (inactive)	23 µM (inactive)	> 100		39.7 µM (inactive)	39 µM (inactive)	36.9 µM (inactive)	27.3 µM (inactive)	43.8 µM (inactive)	46.8 µM (inactive)	> 100 µM (inactive)	25.6 µM (inactive)	44.9 µM (inactive)	11.9 µM (inactive)	36.9 µM (inactive)		20.5 µM (inactive)
CCOC(=O)c1nc2ccc(C(F)(F)F)cc2nc1NCc1ccc(OC)cc1	> 100 µM (inactive)	93.8 µM (inactive)		> 100 µM (inactive)		82.8	98.9 µM (inactive)	55.8 µM (inactive)	48.6 µM (inactive)	> 100 µM (inactive)	> 100 µM (inactive)	28 µM (inactive)	68.4 µM (inactive)	> 100 µM (inactive)	58.2 µM (inactive)	> 100 µM (inactive)	85.9 µM (inactive)	74 µM (inactive)	> 100 µM (inactive)	60.4 µM (inactive)
N#CC(=N)c1ncn(CCO)c1NC(=O)C(F)(F)F	> 100 µM (inactive)	> 100 µM (inactive)	> 100 µM (inactive)	> 100 µM (inactive)	> 100 µM (inactive)	> 100	> 100 µM (inactive)	> 100 µM (inactive)	> 100 µM (inactive)	> 100 µM (inactive)	> 100 µM (inactive)	> 100 µM (inactive)	> 100 µM (inactive)	> 100 µM (inactive)	> 100 µM (inactive)	> 100 µM (inactive)	> 100 µM (inactive)	> 100 µM (inactive)	> 100 µM (inactive)	
COc1ccc2c(c1)CN1C(=N2)CSC1c1c(Cl)cccc1[N+](=O)[O-] (configuration not stated)	23.1 µM (inactive)	11.4 µM (inactive)		25.4 µM (inactive)	22.7 µM (inactive)	16.6	34.3 µM (inactive)	17.9 µM (inactive)	18.5 µM (inactive)	18.3 µM (inactive)	16.4 µM (inactive)	14.7 µM (inactive)	15.1 µM (inactive)	26.4 µM (inactive)	12.8 µM (inactive)	29.9 µM (inactive)	27.8 µM (inactive)	17.2 µM (inactive)	20 µM (inactive)	14.9 µM (inactive)
O=c1[nH]c(=O)n(COCc2ccccc2)c2ccc(Br)cc12	> 100 µM (inactive)	> 100 µM (inactive)	> 100 µM (inactive)	96.8 µM (inactive)		71.4		> 100 µM (inactive)	> 100 µM (inactive)	> 100 µM (inactive)	> 100 µM (inactive)	89.5 µM (inactive)	37 µM (inactive)	> 100 µM (inactive)	99.3 µM (inactive)	64.3 µM (inactive)	43.4 µM (inactive)	> 100 µM (inactive)	> 100 µM (inactive)	
COC(=O)C(NC(=O)CSc1nnc(COc2ccc(Cl)cc2)n1-c1ccccc1)C(C)C (configuration not stated)	10.3 µM (inactive)	23.4 µM (inactive)	37.3 µM (inactive)	23 µM (inactive)	18.6 µM (inactive)	36.7	18.6 µM (inactive)	17 µM (inactive)	26.2 µM (inactive)	21.9 µM (inactive)	17.4 µM (inactive)	33.2 µM (inactive)	22.6 µM (inactive)	28.8 µM (inactive)		29.3 µM (inactive)	14.6 µM (inactive)	17.7 µM (inactive)	17.8 µM (inactive)	
COc1ccc(OC)c(NC(=O)C(=O)Nn2c(S)nc3ccccc3c2=O)c1	> 100 µM (inactive)			82.2 µM (inactive)	> 100 µM (inactive)	> 100	> 100 µM (inactive)	> 100 µM (inactive)	> 100 µM (inactive)	> 100 µM (inactive)	> 100 µM (inactive)	> 100 µM (inactive)	> 100 µM (inactive)	> 100 µM (inactive)	> 100 µM (inactive)	> 100 µM (inactive)	> 100 µM (inactive)	> 100 µM (inactive)	> 100 µM (inactive)	> 100 µM (inactive)
O=C(NC/C(Cl)=C/Cl)Nc1c2ccccc2nc2ccccc12	> 100 µM (inactive)	29 µM (inactive)	54.5 µM (inactive)	> 100 µM (inactive)	86.3 µM (inactive)	59	> 100 µM (inactive)	53.2 µM (inactive)	61.2 µM (inactive)	84.5 µM (inactive)	22 µM (inactive)	60.3 µM (inactive)	52 µM (inactive)	99.3 µM (inactive)	57.9 µM (inactive)	> 100 µM (inactive)	> 100 µM (inactive)	78.9 µM (inactive)	> 100 µM (inactive)	
COC1(C2c3ccccc3CCN2C(=O)OC(C)(C)C)C(=O)C(c2ccccc2)=C1N(C)C (configuration not stated)	45.7 µM (inactive)	18.5 µM (inactive)	55.8 µM (inactive)	40.6 µM (inactive)		30.9	37 µM (inactive)	18.1 µM (inactive)		27.3 µM (inactive)		29.8 µM (inactive)	21.1 µM (inactive)	74.5 µM (inactive)	20.7 µM (inactive)	27.5 µM (inactive)	43.6 µM (inactive)	40.6 µM (inactive)	30.5 µM (inactive)	27.9 µM (inactive)
